From patent publication US20120259126A1, “[…]” (UNIVERSITAT HEIDELBERG, priority 2009, published 2012)

Settings: 24° C.

SMILES: C1CCOC1.C1CCOC1.C1CCOC1.C1CCOC1.CC(C)(C)c1cc2c(c(C(C)(C)C)c1)O[B-]1(Oc3c-2cc(C(C)(C)C)cc3C(C)(C)C)Oc2c(cc(C(C)(C)C)cc2C(C)(C)C)-c2cc(C(C)(C)C)cc(C(C)(C)C)c2O1.[Li+] [lithium tetrakis(tetrahydrofuran)bis(3,3′,5,5′-tetra-tert-butyl-2,2′-diphenolato)borate(III)]
- solubility in pentane (maximum concentrations): at least 21 g/L
